Experimental data: patent publication US9889183B2, “PKC activators and anticoagulant in regimen for treating stroke” (BLANCHETTE ROCKEFELLER NEUROSCIENCES INSTITUTE, priority 2010, dated 2018)

How the values were obtained:
[1] = tested on: global cerebral ischemia/hypoxia in rats; experiment: Global ischemia model, water maze (Examples 10-11); assay type: in vivo, rat
Protocol: Rats (male, Wistar, 200-225 g) were randomly divided into 6 groups (8 each) and housed for 1 week before experimentation. […] The global ischemia model used to induce vascular memory impairment was two-vessel occlusion combined with a short term systemic hypoxia. Ligation of the bilateral common carotid arteries was performed under anesthesia (pentobarbital, 60 mg/kg, i.p.). After a one-week recovery from the surgery, rats were exposed to 14-min hypoxia (5% oxygen in a glass jar). Control rats (sham operated and vehicle controls) were subjected to the same incision to isolate both common carotid arteries and to 14-min air (in the glass jar). Body temperature was kept at 37-37.5° C. using a heating light source during the surgical procedure and until the animals were fully recovered.

[2] = tested on: global cerebral ischemia/hypoxia in rats; experiment: Global cerebral ischemia/hypoxia, spatial learning and memory (Example 12); assay type: in vivo, rat
Protocol: Global cerebral ischemialhypoxia was induced in male Wistar rats (225-250 g) by permanently occluding the bilateral common carotid arteries, combined with about 14 minutes of low oxygen (about 5%). […] Spatial learning (2 trials/day for 4 days) and memory (a probe test of 1 minute, 24 hours after the last trial) task was performed 9 days after the last dose. Overall, there was a significant difference between the groups (F3,255=31.856, p<0.001) and groups x trials (F21,255=1.648, p<0.05). Global cerebral ischemia impaired the spatial learning (ischemial vs. sham-operated F1,127=[…]).

α-secretase = conditions: 10 pM; human fibroblasts; cited from earlier work
other PKC isoforms = experiment: PKC isozyme specificity, other PKC isoforms; assay type: biochemical; conditions: data not shown
Protocol: (§1) Protein kinase C assay. Rat hippocampal cells were cultured and scraped in 0.2 ml homogenization buffer (20 mM Tris-HCl, pH 7.4, 50 mM NaF, 1 μg/ml leupeptin, and 0.1 mM PMSF) and homogenized by sonication a Marsonix microprobe sonicator (5 sec, 10 W). To measure PKC, 10 μl of cell homogenate or purified PKC isozyme (purchased from Calbiochem) was incubated for 15 min at 37° C. in the presence of 10 μM histones, 4.89 mM CaCl2, 1.2 μg/μl phosphatidyl-L-serine, 0.18 μg/μl 1,2-dioctanoyl-sn-glycerol, 10 mM MgCl2, 20 mM HEPES (pH 7.4), 0.8 mM EDTA, 4 mM EGTA, 4% glycerol, 8 μg/ml aprotinin, 8 μg/ml leupeptin, and 2 mM benzamidine. […][^γ32P]ATP was added and ^32P-phosphoprotein formation was measured by adsorption onto phosphocellulose as described previously. Nelson and Alkon, J. Neurochemistry (1995), vol. 65, pp. 2350-2357. For measurements of activation by BR-101 (DCP-LA) and similar compounds. PKC activity was measured in the absence of diacylglycerol and phosphatidylserine and PKC δ, ε, η, and μ were measured in the absence of added EGTA and CaCl2, as described by Kanno et al. (J. Lipid Res. 2006, vol. 47, pp. 1146-1150). […]
(§2) To determine their PKC isozyme specificity, fatty acid derivatives were preincubated with purified PKC for five minutes and the PKC activity was measured radiometrically.

PKCδ = biological target: T1, PKCδ (Homo sapiens, UniProt Q05655); experiment: PKC isozyme specificity, PKCδ; assay type: biochemical; conditions: about 1-100 μM; data not shown
T1 construct: purchased Calbiochem
T1 sequence (Q05655 whole entry): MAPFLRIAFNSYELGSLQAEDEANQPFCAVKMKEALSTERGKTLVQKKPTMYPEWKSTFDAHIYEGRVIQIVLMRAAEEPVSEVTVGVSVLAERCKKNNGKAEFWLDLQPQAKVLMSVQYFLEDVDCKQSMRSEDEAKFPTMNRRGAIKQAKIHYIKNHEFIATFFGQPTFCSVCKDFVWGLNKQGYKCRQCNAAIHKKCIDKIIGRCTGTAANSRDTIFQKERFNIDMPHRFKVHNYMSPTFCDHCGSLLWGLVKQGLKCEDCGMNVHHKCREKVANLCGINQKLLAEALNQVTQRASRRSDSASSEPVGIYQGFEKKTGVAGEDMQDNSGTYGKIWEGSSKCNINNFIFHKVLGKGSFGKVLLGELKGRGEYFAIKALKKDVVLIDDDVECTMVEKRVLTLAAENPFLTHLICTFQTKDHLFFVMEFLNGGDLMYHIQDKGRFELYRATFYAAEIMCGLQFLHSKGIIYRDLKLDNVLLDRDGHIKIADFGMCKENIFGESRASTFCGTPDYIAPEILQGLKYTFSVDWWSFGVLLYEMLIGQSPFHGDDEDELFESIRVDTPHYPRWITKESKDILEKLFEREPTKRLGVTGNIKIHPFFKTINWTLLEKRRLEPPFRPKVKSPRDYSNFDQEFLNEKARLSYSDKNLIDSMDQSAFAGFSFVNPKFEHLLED
Protocol: as §1, §2

PKCγ = biological target: T2, PKCγ (Homo sapiens, UniProt P05129); experiment: PKC isozyme specificity, PKCγ; assay type: biochemical; conditions: 50-100 μM; data not shown
T2 construct: purchased Calbiochem
Protocol: as §1, §2

PKC in primary neurons = experiment: PKC activity over time in rat hippocampal primary neurons; assay type: cell-based; conditions: only observed in primary neurons
Protocol: Cell culture. Rat hippocampal H19-7/IGF-IR cells (ATCC, Manassas, Va.) were plated onto poly-L-lysine coated plates and grown at 35° C. in DMEM/10% FCS for several days until about 50% coverage was obtained. The cells were then induced to differentiate into a neuronal phenotype by replacing the medium with 5 ml N2 medium containing 10 ng/ml basic fibroblast growth factor at 39° C. and grown in T-75 flasks at 37° C. Human SH-SY5Y neuroblastoma cells (ATCC) were cultured in 45% F12K/45% MEM/10% FCS. Mouse N2A neuroblastoma cells were cultured in DMEM/10% FCS without glutamine. Rat hippocampal neurons from 18-day-old embryonic Sprague Dawley rat brains were plated on 12- or 96-well plates coated with poly-D-lysine (Sigma-Aldrich, St. Louis, Mo.) in B-27 neurobasal medium containing 0.5 mM glutamine and 25 μM glutamate (Invitrogen, Carlsbad, Calif.) and cultured for three days in the medium without glutamate. The neuronal cells were grown under 5% CO2 in an incubator maintained at 37° C. for 14 days.
Protein kinase C assay. […] 0.5 Ci[^γ32P]ATP was added and ^32P-phosphoprotein formation was measured by adsorption onto phosphocellulose as described previously. […] PKC activity was measured in the absence of diacylglycerol and phosphatidylserine and PKC δ, ε, η, and μ were measured in the absence of added EGTA and CaCl2, as described by Kanno et al. (J. Lipid Res. 2006, vol. 47, pp. 1146-1150). […]

PKCε = biological target: T3, PKCε (Homo sapiens, UniProt Q02156); conditions: cited from earlier work
T3 construct: purchased Calbiochem
T3 sequence (Q02156 1-737): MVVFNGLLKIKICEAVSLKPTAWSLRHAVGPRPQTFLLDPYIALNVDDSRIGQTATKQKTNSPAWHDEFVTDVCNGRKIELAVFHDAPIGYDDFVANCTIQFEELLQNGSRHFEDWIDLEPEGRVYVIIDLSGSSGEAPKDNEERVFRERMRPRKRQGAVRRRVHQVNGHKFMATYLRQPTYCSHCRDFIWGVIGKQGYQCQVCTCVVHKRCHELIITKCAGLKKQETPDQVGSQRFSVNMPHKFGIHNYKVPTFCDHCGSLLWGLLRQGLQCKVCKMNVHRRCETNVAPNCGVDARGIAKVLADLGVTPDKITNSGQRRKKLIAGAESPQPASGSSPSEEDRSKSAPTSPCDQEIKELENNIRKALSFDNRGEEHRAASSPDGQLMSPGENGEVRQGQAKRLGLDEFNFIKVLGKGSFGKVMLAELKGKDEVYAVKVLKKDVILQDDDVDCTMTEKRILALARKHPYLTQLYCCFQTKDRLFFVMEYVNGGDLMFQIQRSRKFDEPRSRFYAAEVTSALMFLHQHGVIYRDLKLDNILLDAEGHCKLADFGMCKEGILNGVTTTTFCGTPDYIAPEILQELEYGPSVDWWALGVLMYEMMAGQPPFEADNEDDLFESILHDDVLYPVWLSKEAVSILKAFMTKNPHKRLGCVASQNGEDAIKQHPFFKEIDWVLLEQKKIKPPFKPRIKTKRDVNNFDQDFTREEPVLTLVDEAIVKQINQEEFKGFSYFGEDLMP

Row | SMILES | water maze spatial learning, ischemic treated vs ischemic rats ([1]; bryostatin-1 20 μg/m^2 i.v. 2 doses/week, 10 doses, MCDA 1.0 mg/kg i.p. daily 5 weeks, start 24 hours after hypoxia) | water maze spatial learning, drug-only vs control rats ([1]; non-ischemic rats, same regimens) | water maze spatial learning, ischemic treated vs control rats ([1]; same regimens) | memory retention (target quadrant preference) after ischemia ([2]; 15 μg/m^2, ischemic rats) | spatial learning, Bryostatin-1 alone vs sham-operated ([2]; 15 μg/m^2, non-ischemic rats) | target quadrant preference, Bryostatin-1 alone vs sham-operated ([2]; 15 μg/m^2, non-ischemic rats) | spatial learning impairment after ischemia ([2]; 15 μg/m^2 tail vein, 2 doses/week, 10 doses, start about 24 hours after event, tested 9 days after last dose) | increase of initial rate of α-secretase activity (α-secretase) | effects on the other PKC isoforms (other PKC isoforms) | effect on PKCδ (PKCδ) | effect on PKCγ (PKCγ) | time PKC remained elevated (PKC in primary neurons) | concentration of maximal effect, selective PKCε activation (PKCε)
1 | CCC/C=C/C=C/C(=O)O[C@H]1/C(=C/C(=O)OC)C[C@H]2C[C@H]([C@@H](C)O)OC(=O)C[C@H](O)C[C@@H]3C[C@H](OC(C)=O)C(C)(C)[C@](O)(C[C@@H]4C/C(=C/C(=O)OC)C[C@H](/C=C/C(C)(C)[C@]1(O)O2)O4)O3 [Bryostatin-1, bryostatin-1] | greatly improved the performance | no differences | did not differ statistically | effectively restored memory retention | did not affect the learning | no significant effects | restored | 16 fold | – | – | – | – | –
2 | CCCCCC1CC1CC1CC1CCCCCCCC(=O)O (stereo not shown) [BR-101, 2-[(2-pentylcyclopropyl)methyl]cyclopropaneoctanoic acid] | – | – | – | – | – | – | – | – | relatively small effects | partially inhibited | activated | at least four | 100 nM
